From US10106504B2, “Pyridin-3-yl acetic acid derivatives as inhibitors of human immunodeficiency virus replication” (priority 2015, dated 2018)

Each compound was assayed on NL-RLuc virus (assay: Inhibition of HIV replication (NL-RLuc virus, luciferase readout in MT-2 cells)). Conditions: Human immunodeficiency virus 1, MT2, 120 h, read-out: Activity.
Format: cell-based
From the text: Inhibition of HIV Replication:
A recombinant NL-RLuc proviral clone was constructed in which a section of the nef gene from NL4-3 was replaced with the Renilla Luciferase gene. This virus is fully infectious and can undergo multiple cycles of replication in cell culture. In addition, the luciferous reporter provides a simple and easy method for quantitating the extent of virus growth and consequently, the antiviral activity of test compounds. The plasmid pNLRLuc contains the proviral NL-Rluc DNA cloned into pUC18 at the PvuII site. The NL-RLuc virus was prepared by transfection of 293T cells with the plasmid pNLRLuc. Transfections were performed using the LipofectAMINE PLUS kit from Invitrogen (Carlsbad, Calif.) according to the manufacturer and the virus generated was titered in MT-2 cells. For susceptibility analyses, the titrated virus was used to infect MT-2 cells in the presence of compound, and after 5 days of incubation, cells were processed and quantitated for virus growth by the amount of expressed luciferase. Assay media was RPMI 1640 supplemented with 10% heat inactivated fetal bovine serum (FBS), 100 units/ml penicillin G/100 units/ml streptomycin, 10 mM HEPES buffer pH 7.55 and 2 mM L-glutamine. The results from at least 2 experiments were used to calculate the EC50 values. Luciferase was quantitated using the Dual Luciferase kit from Promega (Madison, Wis.). Susceptibility of viruses to compounds was determined by incubation in the presence of serial dilutions of the compound. The 50% effective concentration (EC50) was calculated by using the exponential form of the median effect equation where (Fa)=1/[1+(ED50/drug conc.)^m] (Johnson V A, Byington R T. Infectivity Assay. In Techniques in HIV Research. ed. Aldovini A, Walker BD. 71-76. New York: Stockton Press. 1990). Activity equal to A refers to a compound having an EC50<100 nM, while B and C denote compounds having an EC50 between 100 nM and 1 uM (B) or >1 uM (C).
Cc1cc(N2CCc3cc(-c4c(C)nc(C)c([C@H](OC(C)(C)C)C(=O)O)c4-c4ccc5c(c4)CCCO5)ccc3C2)nc(C)n1 [Example 58, (S)-2-(tert-Butoxy)-2-(4-(chroman-6-yl)-5-(2-(2,6-dimethylpyrimidin-4-yl)-1,2,3,4-tetrahydroisoquinolin-6-yl)-2,6-dimethylpyridin-3-yl)acetic Acid] was tested, and the EC50 was less than 0.1 µM.
Work on Cc1cccc(Cl)c1CN1CCc2cc(-c3c(N)nc(C)c([C@H](OC(C)(C)C)C(=O)O)c3-c3ccc4c(c3)CCCO4)ccc2C1 [Example 63, (S)-2-(6-Amino-5-(2-(2-chloro-6-methylbenzyl)-1,2,3,4-tetrahydroisoquinolin-6-yl)-4-(chroman-6-yl)-2-methylpyridin-3-yl)-2-(tert-butoxy)acetic Acid] yielded an EC50 of less than 0.1 µM.
In the case of Cc1nc(CN(C)CC2CCOCC2)c(-c2ccc3c(c2)CCN(c2ncnc4c2cnn4C)C3)c(-c2ccc3c(c2)CCCO3)c1[C@H](OC(C)(C)C)C(=O)O [Example 32, (S)-2-(tert-Butoxy)-2-(4-(chroman-6-yl)-2-methyl-6-((methyl((tetrahydro-2H-pyran-4-yl)methyl)amino)methyl)-5-(2-(1-methyl-1H-pyrazolo[3,4-d]pyrimidin-4-yl)-1,2,3,4-tetrahydroisoquinolin-6-yl)pyridin-3-yl)acetic Acid], the EC50 is reported as 0.1 to 1 µM.
Cc1nc(C)c([C@H](OC(C)(C)C)C(=O)O)c(-c2cc(F)c3c(c2)CCCO3)c1-c1ccc(OCCc2ccc(F)cc2)cc1 [Example 48, (S)-2-(tert-Butoxy)-2-(4-(8-fluorochroman-6-yl)-5-(4-(4-fluorophenethoxy)phenyl)-2,6-dimethylpyridin-3-yl)acetic Acid] gave an EC50 of less than 0.1 µM.
COc1nccc(N2CCc3cc(-c4c(C)nc(C)c([C@H](OC(C)(C)C)C(=O)O)c4-c4ccc5c(c4)CCCO5)ccc3C2)n1 [Example 57, (S)-2-(tert-Butoxy)-2-(4-(chroman-6-yl)-5-(2-(2-methoxypyrimidin-4-yl)-1,2,3,4-tetrahydroisoquinolin-6-yl)-2,6-dimethylpyridin-3-yl)acetic Acid] showed an EC50 of less than 0.1 µM.
Compound Cc1cccc(F)c1CN1CCc2cc(-c3c(C)nc(C)c([C@H](OC(C)(C)C)C(=O)O)c3-c3cc(F)c4c(c3)CCCO4)ccc2C1 [Example 49, (S)-2-(tert-Butoxy)-2-(5-(2-(2-fluoro-6-methylbenzyl)-1,2,3,4-tetrahydroisoquinolin-6-yl)-4-(8-fluorochroman-6-yl)-2,6-dimethylpyridin-3-yl)acetic Acid] has an EC50 of less than 0.1 µM.
Cc1cccc(F)c1CN1CCc2cc(-c3c(CCCC4CCOCC4)nc(C)c([C@H](OC(C)(C)C)C(=O)O)c3-c3ccc4c(c3)CCCO4)ccc2C1 [Example 68, (S)-2-(tert-Butoxy)-2-(4-(chroman-6-yl)-5-(2-(2-fluoro-6-methylbenzyl)-1,2,3,4-tetrahydroisoquinolin-6-yl)-2-methyl-6-(3-(tetrahydro-2H-pyran-4-yl)propyl)pyridin-3-yl)acetic Acid] showed an EC50 of less than 0.1 µM.
With Cc1nc(C)c([C@H](OC(C)(C)C)C(=O)O)c(-c2cc(F)c3c(c2)C=CCO3)c1-c1ccc(OCCc2ccc(F)cc2)cc1 [Example 47, (S)-2-(tert-Butoxy)-2-(4-(8-fluoro-2H-chromen-6-yl)-5-(4-(4-fluorophenethoxy)phenyl)-2,6-dimethylpyridin-3-yl)acetic Acid] the EC50 was less than 0.1 µM.
Cc1ccc(-c2c(-c3ccc(OCc4ccc(F)cc4)cc3)c(C)nc(C)c2[C@H](OC(C)(C)C)C(=O)O)cc1 [Example 5, (S)-2-(tert-Butoxy)-2-(5-(4-((4-fluorobenzyl)oxy)phenyl)-2,6-dimethyl-4-(p-tolyl)pyridin-3-yl)acetic Acid] showed an EC50 of 0.1 to 1 µM.
Cc1cc(N2CCc3cc(-c4c(CN(C)CC5CCOCC5)nc(C)c([C@H](OC(C)(C)C)C(=O)O)c4-c4ccc5c(c4)CCCO5)ccc3C2)ncn1 [Example 33, (S)-2-(tert-Butoxy)-2-(4-(chroman-6-yl)-2-methyl-6-((methyl((tetrahydro-2H-pyran-4-yl)methyl)amino)methyl)-5-(2-(6-methylpyrimidin-4-yl)-1,2,3,4-tetrahydroisoquinolin-6-yl)pyridin-3-yl)acetic Acid] gave an EC50 of 0.1 to 1 µM.
With Cc1nc(C)c([C@H](OC(C)(C)C)C(=O)O)c(-c2ccc3c(c2)CCCO3)c1-c1ccc2c(c1)CCN(CCc1ccccc1F)C2 [Example 30, (S)-2-(tert-Butoxy)-2-(4-(chroman-6-yl)-5-(2-(2-fluorophenethyl)-1,2,3,4-tetrahydroisoquinolin-6-yl)-2,6-dimethylpyridin-3-yl)acetic Acid] the EC50 was less than 0.1 µM.
In the case of Cc1cc(F)ccc1CN1CCc2cc(-c3c(C)nc(C)c([C@H](OC(C)(C)C)C(=O)O)c3-c3cc(F)c4c(c3)CCCO4)ccc2C1 [Example 50, (S)-2-(tert-Butoxy)-2-(5-(2-(4-fluoro-2-methylbenzyl)-1,2,3,4-tetrahydroisoquinolin-6-yl)-4-(8-fluorochroman-6-yl)-2,6-dimethylpyridin-3-yl)acetic Acid], the EC50 is reported as less than 0.1 µM.
With Cc1nc(C)c([C@H](OC(C)(C)C)C(=O)O)c(-c2cc(F)c3c(c2C)CCCO3)c1-c1ccc2c(c1)CCN(Cc1ccccc1F)C2 [Example 38, (2S)-2-(tert-Butoxy)-2-(4-(8-fluoro-5-methylchroman-6-yl)-5-(2-(2-fluorobenzyl)-1,2,3,4-tetrahydroisoquinolin-6-yl)-2,6-dimethylpyridin-3-yl)acetic Acid] the EC50 was less than 0.1 µM.
Cc1cccc(Cl)c1CN1CCc2cc(-c3c(C)nc(C)c([C@H](OC(C)(C)C)C(=O)O)c3-c3cc(F)c4c(c3)CCCO4)ccc2C1 [Example 51, (S)-2-(tert-Butoxy)-2-(5-(2-(2-chloro-6-methylbenzyl)-1,2,3,4-tetrahydroisoquinolin-6-yl)-4-(8-fluorochroman-6-yl)-2,6-dimethylpyridin-3-yl)acetic Acid] gave an EC50 of less than 0.1 µM.
Cc1nc(C)c([C@H](OC(C)(C)C)C(=O)O)c(-c2ccc3c(c2)C(F)(F)CCO3)c1-c1ccc2c(c1)CCN(Cc1ccccc1F)C2 [Example 37, (S)-2-(tert-Butoxy)-2-(4-(4,4-difluorochroman-6-yl)-5-(2-(2-fluorobenzyl)-1,2,3,4-tetrahydroisoquinolin-6-yl)-2,6-dimethylpyridin-3-yl)acetic Acid] was tested, and the EC50 was less than 0.1 µM.
With Cc1cccc(F)c1CN1CCc2cc(-c3c(N)nc(C)c([C@H](OC(C)(C)C)C(=O)O)c3-c3ccc4c(c3)CCCO4)ccc2C1 [Example 62, (S)-2-(6-Amino-4-(chroman-6-yl)-5-(2-(2-fluoro-6-methylbenzyl)-1,2,3,4-tetrahydroisoquinolin-6-yl)-2-methylpyridin-3-yl)-2-(tert-butoxy)acetic Acid] the EC50 was less than 0.1 µM.
Compound Cc1nc(C)c([C@H](OC(C)(C)C)C(=O)O)c(-c2ccc3c4c(ccnc24)CCO3)c1-c1ccc(OCCc2ccc(F)cc2)cc1 [Example 43, (2S)-2-(tert-Butoxy)-2-(4-(2,3-dihydropyrano[4,3,2-de]quinolin-7-yl)-5-(4-(4-fluorophenethoxy)phenyl)-2,6-dimethylpyridin-3-yl)acetic Acid] has an EC50 of 0.1 to 1 µM.
Work on Cc1nc(C)c([C@H](OC(C)(C)C)C(=O)O)c(-c2cc(F)c3c(c2)CCCO3)c1-c1ccc2c(c1)CCN(c1ncnc3c1cnn3C)C2 [Example 53, (S)-2-(tert-Butoxy)-2-(4-(8-fluorochroman-6-yl)-2,6-dimethyl-5-(2-(1-methyl-1H-pyrazolo[3,4-d]pyrimidin-4-yl)-1,2,3,4-tetrahydroisoquinolin-6-yl)pyridin-3-yl)acetic Acid] yielded an EC50 of less than 0.1 µM.
Cc1cccc(Cl)c1CN1CCc2cc(-c3c(C)nc(C)c([C@H](OC(C)(C)C)C(=O)O)c3-c3ccc4c(c3)CCCO4)ccc2C1 [Example 29, (S)-2-(tert-Butoxy)-2-(5-(2-(2-chloro-6-methylbenzyl)-1,2,3,4-tetrahydroisoquinolin-6-yl)-4-(chroman-6-yl)-2,6-dimethylpyridin-3-yl)acetic Acid] gave an EC50 of less than 0.1 µM.
In the case of Cc1cccc(F)c1CN1CCc2cc(-c3c(C)nc(C)c([C@H](OC(C)(C)C)C(=O)O)c3-c3ccc4c(c3)CCCO4)ccc2C1 [Example 25, (S)-2-(tert-Butoxy)-2-(4-(chroman-6-yl)-5-(2-(2-fluoro-6-methylbenzyl)-1,2,3,4-tetrahydroisoquinolin-6-yl)-2,6-dimethylpyridin-3-yl)acetic Acid], the EC50 is reported as less than 0.1 µM.
Cc1nc(C)c([C@H](OC(C)(C)C)C(=O)O)c(C2=CCC(C)(C)CC2)c1-c1ccc(OCCc2ccc(F)cc2)cc1 [Example 46, (S)-2-(tert-Butoxy)-2-(4-(4,4-dimethylcyclohex-1-en-1-yl)-5-(4-(4-fluorophenethoxy)phenyl)-2,6-dimethylpyridin-3-yl)acetic Acid] showed an EC50 of less than 0.1 µM.
Work on Cc1nc(C)c([C@H](OC(C)(C)C)C(=O)O)c(-c2ccc3c(c2)CCCO3)c1-c1ccc(OCCc2ccccc2F)cc1 [Example 45, (S)-2-(tert-Butoxy)-2-(4-(chroman-6-yl)-5-(4-(2-fluorophenethoxy)phenyl)-2,6-dimethylpyridin-3-yl)acetic Acid] yielded an EC50 of less than 0.1 µM.

Same assay, conditions: Human immunodeficiency virus 1, MT2, 120 h, read-out: EC50 μM
Compound Cc1cc(N2CCc3cc(-c4c(CN(C)CC5CCOCC5)nc(C)c([C@H](OC(C)(C)C)C(=O)O)c4-c4ccc5c(c4)CCCO5)ccc3C2)ncn1 [Example 33, (S)-2-(tert-Butoxy)-2-(4-(chroman-6-yl)-2-methyl-6-((methyl((tetrahydro-2H-pyran-4-yl)methyl)amino)methyl)-5-(2-(6-methylpyrimidin-4-yl)-1,2,3,4-tetrahydroisoquinolin-6-yl)pyridin-3-yl)acetic Acid] has an EC50 of 0.282 µM.
Work on Cc1nc(C)c([C@H](OC(C)(C)C)C(=O)O)c(C2=CCC(C)(C)CC2)c1-c1ccc(OCCc2ccc(F)cc2)cc1 [Example 46, (S)-2-(tert-Butoxy)-2-(4-(4,4-dimethylcyclohex-1-en-1-yl)-5-(4-(4-fluorophenethoxy)phenyl)-2,6-dimethylpyridin-3-yl)acetic Acid] yielded an EC50 of 0.061 µM.
